Experiment: xn = mol fraction of the nth substance listed
Conditions: 101 kPa

CCCCCC[n+]1ccn(C)c1.F[P-](F)(F)(F)(F)F + CCCCCC[n+]1ccn(C)c1.[Cl-]
Conditions | electrical conductivity [S/m] | viscosity [mPa·s]
303 K, x2 = 0 | 0.0747 | –
303 K, x2 = 0.2 | 0.0399 | –
303 K, x2 = 0.4 | 0.0205 | –
303 K, x2 = 0.6 | 0.0104 | –
303 K, x2 = 0.8 | 0.0054 | –
303.15 K, x2 = 0 | – | 500
308 K, x2 = 0 | 0.0993 | –
308 K, x2 = 0.2 | 0.0556 | –
308 K, x2 = 0.6 | 0.0158 | –
308 K, x2 = 0.8 | 0.0086 | –
308.15 K, x2 = 0.2 | – | 680
308.15 K, x2 = 0.4 | – | 1238
313 K, x2 = 0.2 | 0.0751 | –
313 K, x2 = 0.6 | 0.0235 | –
313 K, x2 = 0.8 | 0.0133 | –
313.15 K, x2 = 0 | – | 273
313.15 K, x2 = 0.2 | – | 490
313.15 K, x2 = 0.4 | – | 850
313.15 K, x2 = 0.6 | – | 1501
318 K, x2 = 0 | 0.166 | –
318 K, x2 = 0.2 | 0.1 | –
318 K, x2 = 0.4 | 0.0584 | –
318 K, x2 = 0.8 | 0.0199 | –
318.15 K, x2 = 0 | – | 208
318.15 K, x2 = 0.2 | – | 360
318.15 K, x2 = 0.6 | – | 1014
323 K, x2 = 0 | 0.21 | –
323 K, x2 = 0.2 | 0.131 | –
323 K, x2 = 0.4 | 0.0793 | –
323 K, x2 = 0.6 | 0.0476 | –
323 K, x2 = 0.8 | 0.0291 | –
323.15 K, x2 = 0 | – | 162
323.15 K, x2 = 0.2 | – | 268
323.15 K, x2 = 0.4 | – | 430
323.15 K, x2 = 0.8 | – | 1154
328 K, x2 = 0.2 | 0.166 | –
328 K, x2 = 0.4 | 0.105 | –
328 K, x2 = 0.6 | 0.0648 | –
328.15 K, x2 = 0 | – | 128
328.15 K, x2 = 0.4 | – | 322
328.15 K, x2 = 0.6 | – | 500
328.15 K, x2 = 0.8 | – | 790
333 K, x2 = 0 | 0.319 | –
333 K, x2 = 0.2 | 0.21 | –
333 K, x2 = 0.4 | 0.137 | –
333 K, x2 = 0.6 | 0.0875 | –
333 K, x2 = 0.8 | 0.0582 | –
333.15 K, x2 = 0 | – | 102
333.15 K, x2 = 0.2 | – | 159
333.15 K, x2 = 0.4 | – | 242
333.15 K, x2 = 0.6 | – | 370
333.15 K, x2 = 0.8 | – | 550

CCCCCCCCn1cc[n+](C)c1.F[B-](F)(F)F + CCCCCCCCn1cc[n+](C)c1.[Cl-]
Conditions | electrical conductivity [S/m] | viscosity [mPa·s]
303 K, x2 = 0.2 | 0.0443 | –
303 K, x2 = 0.4 | 0.0225 | –
303 K, x2 = 0.6 | 0.011 | –
303.15 K, x2 = 0.2 | – | 530
303.15 K, x2 = 0.6 | – | 2399
308 K, x2 = 0 | 0.107 | –
308 K, x2 = 0.2 | 0.0605 | –
308 K, x2 = 0.4 | 0.0317 | –
308 K, x2 = 0.6 | 0.0163 | –
308 K, x2 = 0.8 | 0.0085 | –
308.15 K, x2 = 0 | – | 194
308.15 K, x2 = 0.2 | – | 380
308.15 K, x2 = 0.4 | – | 760
308.15 K, x2 = 0.6 | – | 1565
313 K, x2 = 0 | 0.137 | –
313 K, x2 = 0.2 | 0.0801 | –
313 K, x2 = 0.4 | 0.0438 | –
313 K, x2 = 0.8 | 0.0128 | –
313.15 K, x2 = 0 | – | 149
313.15 K, x2 = 0.2 | – | 279
313.15 K, x2 = 0.4 | – | 530
313.15 K, x2 = 0.6 | – | 1065
313.15 K, x2 = 0.8 | – | 2245
318 K, x2 = 0.4 | 0.0595 | –
318 K, x2 = 0.8 | 0.0186 | –
318.15 K, x2 = 0 | – | 116
318.15 K, x2 = 0.2 | – | 211
318.15 K, x2 = 0.4 | – | 390
318.15 K, x2 = 0.6 | – | 740
323 K, x2 = 0 | 0.215 | –
323 K, x2 = 0.2 | 0.136 | –
323 K, x2 = 0.4 | 0.0791 | –
323 K, x2 = 0.8 | 0.0264 | –
323.15 K, x2 = 0 | – | 92
323.15 K, x2 = 0.2 | – | 162
323.15 K, x2 = 0.4 | – | 287
323.15 K, x2 = 0.6 | – | 520
323.15 K, x2 = 0.8 | – | 1015
328 K, x2 = 0 | 0.263 | –
328 K, x2 = 0.4 | 0.102 | –
328 K, x2 = 0.6 | 0.0607 | –
328 K, x2 = 0.8 | 0.0366 | –
328.15 K, x2 = 0 | – | 74
328.15 K, x2 = 0.2 | – | 127
328.15 K, x2 = 0.4 | – | 216
328.15 K, x2 = 0.6 | – | 370
328.15 K, x2 = 0.8 | – | 710
333 K, x2 = 0.2 | 0.211 | –
333 K, x2 = 0.4 | 0.13 | –
333 K, x2 = 0.6 | 0.0797 | –
333 K, x2 = 0.8 | 0.0514 | –
333.15 K, x2 = 0.2 | – | 100
333.15 K, x2 = 0.4 | – | 166
333.15 K, x2 = 0.6 | – | 279
333.15 K, x2 = 0.8 | – | 500

CCCCCCCCn1cc[n+](C)c1.[Cl-] + CCCCCCCCn1cc[n+](C)c1.F[B-](F)(F)F
x1 = 1
Conditions | electrical conductivity [S/m] | viscosity [mPa·s]
303 K | 0.0021 | –
308 K | 0.0035 | –
318 K | 0.0086 | –
323 K | 0.0129 | –
323.15 K | – | 2043
328 K | 0.0187 | –
333 K | 0.0266 | –
333.15 K | – | 930
